According to US20180193453A1, “TREATMENT-RESISTANCE REDUCING AGENT FOR TREATMENT-RESISTANT CANCER” (NATIONAL UNIVERSITY CORPORATION HOKKAIDO UNIVERSITY, priority 2015, published 2018):

How the values were obtained:
A549-DR-IL-34-KO cells = assay: MTT cell viability assay with or without DOX; assay type: cell-based, human; conditions: DOX 1 μM, 72 hours, FIG. 7 upper
A549-DR cells = assay: MTT cell viability assay with or without DOX; assay type: cell-based, human; conditions: DOX 1 μM, 72 hours, FIG. 7 upper
Description: Human lung adenocarcinoma cell line A549 was obtained from the American Type Cell Culture (ATCC, USA). Cell culture was carried out at 37° C. in an atmosphere of 5% CO2 using Dulbecco's Modified Eagle's Medium (DMEM) (SIGMA) supplemented with fetal bovine serum (at a final concentration of 10%), penicillin (at a final concentration of 100 U/mL) and streptomycin (at a final concentration of 100 μg/mL). A549 cells were cultured at 37° C. in an atmosphere of 5% CO2, in DMEM in which the DOX concentration was increased stepwise from 0.01 to 1 μM, and then cells acquiring DOX resistance were selected to generate a DOX-resistant A549 cell line (A549-DR). The resultant A549-DR cells maintained their drug resistance by exposure to 1 μM DOX.
A549-DS, A549-DR, and A549-DR-IL-34-KO cells were cultured in DMEM medium with or without DOX (at a final concentration of 1 μM). After 72 hours of culturing, an MTT assay was performed (using a cell proliferation determination kit, available from Roche Applied) to determine the viability of cells. Similarly, A549-DR cells were cultured in a medium with or without DOX in which an anti-IL-34 neutralizing antibody was added at a final concentration of 0.01 to 10 μg/mL, and the viability of cells was determined in a similar way.

A549-DR-IL-34-KO tumor = assay: Tumor size in humanized NOG mice with DOX administration; assay type: in vivo; conditions: DOX 10 mg/kg/mouse intravenously, twice a week, 4 times, vs PBS, FIG. 8
A549-DR tumor = assay: as above; assay type: in vivo; conditions: DOX 10 mg/kg/mouse intravenously, twice a week, 4 times, vs PBS, FIG. 8

Structure (SMILES): COc1cccc2c1C(=O)c1c(O)c3c(c(O)c1C2=O)C[C@@](O)(C(=O)CO)C[C@@H]3O[C@H]1C[C@H](N)[C@H](O)[C@H](C)O1 [DOX, doxorubicin]
- viability of cells (sensitivity to DOX) (A549-DR-IL-34-KO cells): restored the sensitivity to DOX
- viability of cells (A549-DR cells): did not have a decreased viability
- tumor size (A549-DR-IL-34-KO tumor): significantly decreased
- tumor size (A549-DR tumor): did not change greatly
